According to patent publication US6774143B1, “Method for treating cells resistant to antineoplastic agents” (Novartis AG, priority 2003, dated 2004):
In brackets after ≈: the same amount, converted by molar mass.

Tests used:
[1] = tested on: 1A9PTX22 cells (β-tubulin mutation); experiment: In vitro cytotoxicity assay (MTT); format: cell-based, human
Description: (§1) 1A9 and 1A9PTX22 cells are plated in 96-well plates at 5×10^4 cells/well, plced in a tissue culture incubator and allowed to attach overnight. The next morning, the number of viable cells in the “time 0” plate (3 wells for each cell line) is determined using an MTT assay (Alley M C, et al., Cancer Res. 1988, 48:589-601).
(§2) At the same time drugs are added in serial, 10-fold dilutions, to the experimental plates. Corresponding vehicles are added to control plates. Experimental and control plates are then incubated in the tissue culture incubator for 72 hours. After the incubation the number of viable cells is determined in each plate using the MTT assay. IC50s (defined as a concentration of a given compound causing 50% inhibition of cell growth) are determined by comparing cell growth in the drug-treated plate (T−T0) to the cell growth in the corresponding control plate (C−T0). For each experiment results are calculated using average numbers from two sets of plates.
(§3) Discodermolide is isolated from the sponge Discodermia dissoluta using the method of Gunasekera SP (supra). Multiple batches of compound of similar purity (all>95% pure, as determined by mass spectrometry, and nuclear magnetic resonance analysis) are used throughout the various studies. For the in vitro cytotoxicity assays all compounds are dissolved in DMSO and are added to the plates with cells to obtain desired concentrations. […] Paclitaxel is purchased from Sigma/Aldrich, (St. Louis, Mo.). For the in vivo hollow fiber assay, solid discodermolide is dissolved in pure ethanol to create a stock solution which is diluted just before dosing with Cremophor EL and D5W to a final concentration of 16.7% Cremophor EL, 8.3% ethanol and 75% D5W. The compound is administered to mice as a single, 15 mg/kg iv injection. Positive control animals receive clinical formulations of paclitaxel (TAXOL) diluted 4-fold with D5W (12.5% Cremophor El, 12.5% ethanol and 75% D5W final concentrations) and administered iv, at 15 mg/kg, once daily for five consecutive days. Vehicle controls are administered according to the corresponding drug schedules.

1A9 cells = experiment: In vitro cytotoxicity assay (MTT); format: cell-based; settings: Homo sapiens, 1A9, 1A9 cells; cytotoxic control; experiment not specified; read-out: IC50
Description: as §1, §2, §3

With COc1cccc2c1C(=O)c1c(O)c3c(c(O)c1C2=O)C[C@@](O)(C(=O)CO)C[C@@H]3O[C@H]1C[C@H](N)[C@H](O)[C@H](C)O1 [Doxorubicin] the IC50 ([1]; Homo sapiens, 1A9/ptx-22, 1A9PTX22 cells, cytotoxic control, experiment not specified, read-out: IC50) was 3 to 5 ng/mL (≈ 5.52 to 9.2 nM), the “fold resistance of 1A9PTX22 versus parental 1A9” value ([1]; from IC50s of the two in vitro experiments) was 2 fold and the IC50 (1A9 cells) was 3 ng/mL (≈ 5.52 nM).
